Results: article PMC8119466, “A screen of FDA-approved drugs identifies inhibitors of protein tyrosine phosphatase 4A3 (PTP4A3 or PRL-3)” (Scientific Reports, 2021)
Structures can show the parent of a compound that is named as a salt. Where two headings read alike, the source gives them in different places.

Columns and labels:
Type in all cases: biochemical
recombinant PRL-3 = target: T1, recombinant PRL-3 (Homo sapiens, UniProt O75365); experiment: In vitro phosphatase assay (DiFMUP hydrolysis), PRL-3; note: test concentration or dose not given here
T1 construct: 6xHis (N, cleaved yes); made in house; host or cells: E. coli One Shot BL21 Star
T1 sequence (O75365 whole entry): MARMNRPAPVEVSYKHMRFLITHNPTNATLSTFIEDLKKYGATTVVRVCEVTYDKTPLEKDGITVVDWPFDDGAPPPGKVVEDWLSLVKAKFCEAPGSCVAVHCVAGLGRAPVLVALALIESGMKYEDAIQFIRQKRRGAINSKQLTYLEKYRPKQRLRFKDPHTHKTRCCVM

recombinant PRL-2 = target: T2, recombinant PRL-2 (Homo sapiens, UniProt Q12974); experiment: In vitro phosphatase assay (DiFMUP hydrolysis), PRL-2;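 note: PRL-2 activity read as DiFMUP hydrolysis after 20 min at room temperature with drug, enzyme first pre-reduced at 4 °C for 20 min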
T2 construct: 6xHis (N, cleaved yes); made in house; host or cells: E. coli One Shot BL21 Star
T2 sequence (Q12974 1-167): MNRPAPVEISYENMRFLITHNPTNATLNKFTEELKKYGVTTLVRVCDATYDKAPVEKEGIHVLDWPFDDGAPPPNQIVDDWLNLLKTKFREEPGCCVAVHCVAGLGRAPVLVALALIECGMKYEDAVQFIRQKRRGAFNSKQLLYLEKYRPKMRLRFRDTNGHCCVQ

recombinant PRL-1 = target: T3, recombinant PRL-1 (Homo sapiens, UniProt Q93096); experiment: In vitro phosphatase assay (DiFMUP hydrolysis), PRL-1; note: test concentration or dose not given here
T3 construct: 6xHis (N, cleaved yes); made in house; host or cells: E. coli One Shot BL21 Star
T3 sequence (Q93096 1-173): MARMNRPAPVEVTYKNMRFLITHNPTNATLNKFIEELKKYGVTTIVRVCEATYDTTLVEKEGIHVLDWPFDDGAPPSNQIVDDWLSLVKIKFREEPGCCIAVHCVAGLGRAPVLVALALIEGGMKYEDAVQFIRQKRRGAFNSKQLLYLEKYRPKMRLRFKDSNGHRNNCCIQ

[1] = FDA-approved drug screen, activity compared to DMSO

Compound | % Phosphatase Activity (compared to DMSO) PRL-3 (recombinant PRL-3; [1]) | % Phosphatase Activity (compared to DMSO) PRL-2 (recombinant PRL-2; [1]) | % Phosphatase Activity (compared to DMSO) PRL-1 (recombinant PRL-1; [1]) | % Phosphatase Activity (compared to DMSO) PRL-3 (recombinant PRL-3) | % Phosphatase Activity (compared to DMSO) PRL-2 (recombinant PRL-2) | % Phosphatase Activity (compared to DMSO) PRL-1 (recombinant PRL-1)
Cc1onc(-c2ccccc2)c1-c1ccc(S(N)(=O)=O)cc1 [Valdecoxib] | 80% | 103% | 97% |  |  | 
CC(C)[C@H](N)C(=O)OCC(CO)OCn1cnc2c(=O)nc(N)[nH]c21 (stereo partly drawn) [Valganciclovir HCl] | 75% | 97% | 103% |  |  | 
C=C[C@]1(C)C[C@@H](OC(=O)CSC(C)(C)CNC(=O)[C@H](N)C(C)C)[C@]2(C)[C@H](C)CC[C@]3(CCC(=O)[C@H]32)[C@@H](C)[C@@H]1O.Cl [Valnemulin HCl] | 80% | 95% | 86% |  |  | 
CCCCC(=O)N(Cc1ccc(-c2ccccc2-c2nnn[nH]2)cc1)[C@H](C(=O)O)C(C)C [Valsartan] | 101% | 115% | 86% |  |  | 
CN[C@H](CC(C)C)C(=O)N[C@H]1C(=O)N[C@@H](CC(N)=O)C(=O)N[C@H]2C(=O)N[C@H]3C(=O)N[C@H](C(=O)N[C@H](C(=O)O)c4cc(O)cc(O)c4-c4cc3ccc4O)[C@H](O)c3ccc(c(Cl)c3)Oc3cc2cc(c3O[C@@H]2O[C@H](CO)[C@@H](O)[C@H](O)[C@H]2O[C@H]2C[C@](C)(N)[C@H](O)[C@H](C)O2)Oc2ccc(cc2Cl)[C@H]1O [Vancomycin HCl] | 99% | 109% | 99% |  |  | 
COc1cc2/c(=N/c3ccc(Br)cc3F)nc[nH]c2cc1OCC1CCN(C)CC1 [Vandetanib (ZD6474)] | 77% | 98% | 96% |  |  | 
CCCc1nc(C)c2c(=O)[nH]c(-c3cc(S(=O)(=O)N4CCN(CC)CC4)ccc3OCC)nn12.Cl.O.O.O [Vardenafil HCl Trihydrate] | 84% | 98% | 98% |  |  | 
C[C@@H]1COC(Nc2ccc3ncnc(Nc4ccc(OCc5nccs5)c(Cl)c4)c3c2)=N1 [Varlitinib] | 132% | 142% | 126% |  |  | 
Cl.Cl.Clc1ccc(Nc2nnc(Cc3ccncc3)c3ccccc23)cc1 [Vatalanib (PTK787) 2HCl] | 72% | 96% | 109% |  |  | 
CC(=O)O[C@H]1C[C@@H]2CC[C@@H]3[C@H](CC[C@@]4(C)[C@H]3C[C@H]([N+]3(C)CCCCC3)[C@@H]4OC(C)=O)[C@@]2(C)C[C@@H]1N1CCCCC1 [Vecuronium Bromide] | 87% | 100% | 103% |  |  | 
C[C@]1(c2nc3c(C(N)=O)cccc3[nH]2)CCCN1 [Veliparib (ABT-888)] | 83% | 99% | 108% |  |  | 
CCCS(=O)(=O)Nc1ccc(F)c(C(=O)c2c[nH]c3ncc(-c4ccc(Cl)cc4)cc23)c1F [Vemurafenib (PLX4032, RG7204)] | 80% | 89% | 89% |  |  | 
COc1ccc(C(CN(C)C)C2(O)CCCCC2)cc1 (stereo not drawn) [Venlafaxine] | 84% | 100% | 97% |  |  | 
Nc1ncnc2c1ncn2[C@@H]1O[C@H](CO)[C@@H](O)[C@@H]1O [Vidarabine] | 121% | 116% | 106% |  |  | 
COc1cccc(-c2ccc(NC(=O)C3=C(C(=O)O)CCC3)c(F)c2)c1 [Vidofludimus] | 91% | 72% | 97% |  |  | 
N#C[C@@H]1CCCN1C(=O)CNC12CC3CC(CC(O)(C3)C1)C2 [Vildagliptin (LAF-237)] | 94% | 136% | 99% |  |  | 
CC[C@]1(O)C[C@@H]2CN(CCc3c([nH]c4ccccc34)[C@@](C(=O)OC)(c3cc4c(cc3OC)N(C)[C@H]3[C@@](O)(C(=O)OC)[C@H](OC(C)=O)[C@]5(CC)C=CCN6CC[C@]43[C@@H]65)C2)C1 [Vinblastine sulfate] | 91% | 95% | 92% |  |  | 
CC[C@]1(O)C[C@H]2CN(CCc3c([nH]c4ccccc34)[C@@](C(=O)OC)(c3cc4c(cc3OC)N(C=O)[C@H]3[C@@](O)(C(=O)OC)[C@H](OC(C)=O)[C@]5(CC)C=CCN6CC[C@]43[C@@H]65)C2)C1 [Vincristine] | 61% | 100% | 85% |  |  | 

Compound | % Phosphatase Activity (compared to DMSO) PRL-3 (recombinant PRL-3; [1]) | % Phosphatase Activity (compared to DMSO) PRL-2 (recombinant PRL-2; [1]) | % Phosphatase Activity (compared to DMSO) PRL-1 (recombinant PRL-1; [1]) | % Phosphatase Activity (compared to DMSO) PRL-3 (recombinant PRL-3) | % Phosphatase Activity (compared to DMSO) PRL-2 (recombinant PRL-2) | % Phosphatase Activity (compared to DMSO) PRL-1 (recombinant PRL-1)
CCC1=C[C@@H]2CN(C1)Cc1c([nH]c3ccccc13)[C@@](C(=O)OC)(c1cc3c(cc1OC)N(C)[C@H]1[C@@](O)(C(=O)OC)[C@H](OC(C)=O)[C@]4(CC)C=CCN5CC[C@]31[C@@H]54)C2 [Vinorelbine Tartrate] | 83% | 98% | 89% |  |  | 
CCOC(=O)C1=C[C@]2(CC)CCCN3CCc4c(n1c1ccccc41)[C@@H]32 [Vinpocetine] | 79% | 114% | 95% |  |  | 
CS(=O)(=O)c1ccc(C(=O)Nc2ccc(Cl)c(-c3ccccn3)c2)c(Cl)c1 [Vismodegib (GDC-0449)] | 79% | 99% | 94% |  |  | 
O=C1O[C@H]([C@@H](O)CO)C(O)=C1O [Vitamin C] | 75% | 105% | 96% |  |  | 
C=C1CC[C@H](O)C/C1=C/C=C1\CCC[C@]2(C)[C@@H]([C@H](C)/C=C/[C@H](C)C(C)C)CC[C@@H]12 [Vitamin D2] | 84% | 99% | 95% |  |  | 
C=C1CC[C@H](O)C/C1=C/C=C1\CCC[C@]2(C)[C@@H]([C@H](C)CCCC(C)C)CC[C@@H]12 [Vitamin D3] | 63% | 95% | 85% |  |  | 
OCC(CO)N[C@H]1C[C@](O)(CO)[C@@H](O)[C@H](O)[C@H]1O [Voglibose] | 75% | 104% | 98% |  |  | 
CC[C@@H]1C(=O)N(C)c2cnc(Nc3ccc(C(=O)N[C@H]4CC[C@H](N5CCN(CC6CC6)CC5)CC4)cc3OC)nc2N1C(C)C [Volasertib (BI 6727)] | 87% | 112% | 97% |  |  | 
CCOC(=O)N[C@@H]1CC[C@@H]2[C@@H](C1)C[C@H]1C(=O)O[C@H](C)[C@H]1[C@H]2/C=C/c1ccc(-c2cccc(F)c2)cn1 [Vorapaxar] | 86% | 73% | 95% |  |  | 
O=C(CCCCCCC(=O)Nc1ccccc1)NO [Vorinostat (SAHA, MK0683)] | 92% | 89% | 98% |  |  | 
CCn1c(=O)c(-c2cc[nH]n2)cc2c(C)nc(N)nc21 [Voxtalisib (XL765, SAR245409)] | 4492% | 5267% | 7254% |  |  | 
Cc1cccc(C)c1N=C1NCCCS1 [Xylazine HCl] |  |  |  | 91% | 112% | 110%
Cc1cc(C(C)(C)C)cc(C)c1CC1=NCCN1 [Xylometazoline HCl] | 88% | 117% | 98% |  |  | 
O=C[C@H](O)[C@@H](O)[C@H](O)CO [Xylose] | 68% | 102% | 115% |  |  | 
COCC[n+]1c2c(n(Cc3cnccn3)c1C)C(=O)c1ccccc1C2=O.[Br-] [YM155 (Sepantronium Bromide)] | 5% | 13% | 11% |  |  | 
COc1cc(C(=O)NS(=O)(=O)c2ccccc2C)ccc1Cc1cn(C)c2ccc(NC(=O)OC3CCCC3)cc12 [Zafirlukast] | 48% | 66% | 68% |  |  | 
Nc1ccn([C@H]2CC[C@@H](CO)O2)c(=O)n1 [Zalcitabine] | 89% | 105% | 93% |  |  | 
